In the supplement of paper PMC10307832:

Columns and labels:
Assay in all cases: relative viability (nuclei count vs DMSO), 5 days (fraction); higher = more cells survive
Imatinib + Navitoclax = compound: Cc1ccc(NC(=O)c2ccc(CN3CCN(C)CC3)cc2)cc1Nc1nccc(-c2cccnc2)n1 [Imatinib] + CC1(C)CCC(c2ccc(Cl)cc2)=C(CN2CCN(c3ccc(C(=O)NS(=O)(=O)c4ccc(N[C@H](CCN5CCOCC5)CSc5ccccc5)c(S(=O)(=O)C(F)(F)F)c4)cc3)CC2)C1 [Navitoclax] (partner 0.5 µM)
Summary of the method: (§1)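 Five library-drug doses in √10 steps were combined with a fixed anchor-drug dose, or a single drug was given alone, by pin tool to lung cancer cell lines in 1536-well plates the day after seeding. Nuclei were stained and counted after 5 days. Relative viability is the nuclei count in treated wells over that in vehicle wells, taken as the median of duplicate plates.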

Imatinib + Lapatinib = compound: Cc1ccc(NC(=O)c2ccc(CN3CCN(C)CC3)cc2)cc1Nc1nccc(-c2cccnc2)n1 [Imatinib] + CS(=O)(=O)CCNCc1ccc(-c2ccc3ncnc(Nc4ccc(OCc5cccc(F)c5)c(Cl)c4)c3c2)o1 [Lapatinib] (partner 2 µM)
Summary of the method: as §1

Imatinib + Luminespib = compound: Cc1ccc(NC(=O)c2ccc(CN3CCN(C)CC3)cc2)cc1Nc1nccc(-c2cccnc2)n1 [Imatinib] + CCNC(=O)c1noc(-c2cc(C(C)C)c(O)cc2O)c1-c1ccc(CN2CCOCC2)cc1 [Luminespib] (partner 0.01 µM)
Summary of the method: as §1

Imatinib + Alpelisib = compound: Cc1ccc(NC(=O)c2ccc(CN3CCN(C)CC3)cc2)cc1Nc1nccc(-c2cccnc2)n1 [Imatinib] + Cc1nc(NC(=O)N2CCC[C@H]2C(N)=O)sc1-c1ccnc(C(C)(C)C(F)(F)F)c1 [Alpelisib] (partner 2 µM)
Summary of the method: as §1

Row | Cell Line | relative viability (Imatinib + Navitoclax; first compound 0.02 µM) | relative viability (Imatinib + Navitoclax; first compound 0.2 µM) | relative viability (Imatinib + Navitoclax; first compound 0.6325 µM) | relative viability (Imatinib + Lapatinib; first compound 0.02 µM) | relative viability (Imatinib + Lapatinib; first compound 0.2 µM) | relative viability (Imatinib + Lapatinib; first compound 0.6325 µM) | relative viability (Imatinib + Luminespib; first compound 0.02 µM) | relative viability (Imatinib + Luminespib; first compound 0.06325 µM) | relative viability (Imatinib + Luminespib; first compound 0.2 µM) | relative viability (Imatinib + Luminespib; first compound 0.6325 µM) | relative viability (Imatinib + Luminespib; first compound 2 µM) | relative viability (Imatinib + Alpelisib; first compound 0.02 µM) | relative viability (Imatinib + Alpelisib; first compound 0.2 µM) | relative viability (Imatinib + Alpelisib; first compound 0.6325 µM) | relative viability (Imatinib + Navitoclax; first compound 0.06325 µM) | relative viability (Imatinib + Navitoclax; first compound 2 µM) | relative viability (Imatinib + Lapatinib; first compound 0.06325 µM) | relative viability (Imatinib + Lapatinib; first compound 2 µM) | relative viability (Imatinib + Alpelisib; first compound 0.06325 µM) | relative viability (Imatinib + Alpelisib; first compound 2 µM)
1 | NCI-H1734 | 0.938 | 1.11 | 0.758 | 1.26 | 1.3 | 1.1 | 0.194 | 0.204 | 0.181 | 0.177 | 0.233 | 0.749 | 0.769 | 0.699 |  |  |  |  |  | 
2 | NCI-H1755 | 1.02 | 1.12 | 0.988 | 1.14 | 1.06 | 0.997 | 0.402 | 0.371 | 0.273 | 0.454 | 0.418 | 1.09 | 1.13 | 0.949 | 1.06 | 1.04 | 0.994 | 1.02 | 1.04 | 0.981
3 | NCI-H1792 | 0.744 | 0.761 | 0.644 | 0.859 | 0.954 | 0.942 | 0.519 | 0.321 | 0.432 | 0.447 | 0.365 | 0.921 | 0.661 | 0.507 | 0.557 | 0.567 | 1.08 | 0.838 | 0.515 | 0.638
4 | NCI-H1793 | 0.378 | 0.409 | 0.362 | 0.841 | 0.536 | 0.647 | 0.253 |  | 0.164 | 0.167 | 0.189 | 0.721 | 0.801 | 0.73 |  | 0.513 |  | 0.831 |  | 0.674
5 | NCI-H1915 | 0.788 | 0.807 | 0.759 | 0.974 | 1.04 | 0.952 | 1.1 |  | 0.694 | 0.637 | 0.766 | 1.07 | 1.09 | 1.05 |  | 0.777 |  |  |  | 0.966
6 | NCI-H1944 | 1.03 | 1.05 | 1.07 | 0.8 | 0.991 | 0.853 | 0.831 | 0.655 |  | 0.665 | 0.787 | 0.85 | 0.893 | 0.714 |  | 1.08 |  | 0.771 |  | 0.84
7 | NCI-H1975 | 1.11 | 1.22 | 1.03 | 1.01 | 1.03 | 1.03 | 0.254 | 0.191 | 0.201 | 0.178 | 0.274 | 0.61 | 0.775 | 0.621 | 1.27 | 1.13 | 1.04 |  | 0.721 | 0.553
8 | NCI-H1993 |  | 0.953 | 0.851 |  | 0.774 | 0.809 | 0.949 | 0.745 | 0.885 | 0.608 | 0.854 |  | 0.533 | 0.621 | 1 | 0.776 | 0.872 | 0.698 | 0.792 | 0.534
9 | NCI-H2009 | 1.22 | 1.23 | 1.17 | 0.974 | 1.05 | 0.87 | 1.15 |  | 0.888 | 1.08 | 0.934 | 1.18 | 1.26 | 1.21 | 1.22 | 1.11 | 0.442 | 0.939 | 1.24 | 1.13
10 | NCI-H2085 | 1.16 | 1.33 | 1.13 | 0.754 | 0.733 | 0.819 | 0.548 | 0.628 | 0.421 | 0.463 | 0.541 | 1 | 1.05 | 1.01 | 1.07 |  | 0.591 | 0.694 | 0.937 | 0.876
11 | NCI-H2087 | 1.07 | 1.21 | 1.11 | 1.06 | 1.21 | 1.05 | 0.205 |  | 0.155 | 0.159 | 0.25 | 0.975 | 1.23 | 0.96 | 1.03 | 0.956 | 0.654 |  | 1.19 | 1.05
12 | NCI-H2170 | 0.722 | 0.672 | 0.643 | 0.266 | 0.282 | 0.263 | 0.901 | 0.395 | 0.526 | 0.502 | 0.735 | 0.954 | 0.846 | 0.789 | 0.655 | 0.633 | 0.28 | 0.245 | 0.931 | 0.797
13 | NCI-H2228 | 0.982 | 1.11 | 0.922 | 1.31 | 1.03 | 1.01 | 0.147 |  | 0.126 | 0.12 | 0.152 | 0.814 | 0.724 | 0.626 | 0.891 | 0.955 | 1.02 | 0.843 | 0.782 | 0.807
14 | NCI-H2347 | 0.792 | 0.688 | 0.823 | 0.995 | 1.05 | 1.04 | 0.499 | 0.425 | 0.431 | 0.475 | 0.608 | 1.15 | 0.933 | 1.11 | 0.675 | 0.859 | 0.913 | 0.91 | 0.968 | 1.09
15 | NCI-H2405 | 0.984 | 0.845 | 0.706 | 1.05 | 1.1 | 0.961 | 0.682 |  | 0.575 | 0.58 | 0.76 | 0.922 | 0.823 | 0.643 |  |  |  | 1.15 |  | 0.95
16 | NCI-H3122 |  | 1.08 | 1.06 | 1.03 |  | 1.02 | 0.0854 | 0.0818 | 0.112 | 0.126 | 0.076 | 0.763 | 0.894 | 0.865 | 1.11 | 1.01 | 1.04 | 0.989 | 0.939 | 0.837
17 | PC-3 [JPC-3] | 0.84 | 0.789 | 0.811 | 0.503 | 0.48 | 0.462 | 0.764 |  | 0.705 | 0.704 | 0.734 | 1.08 | 1.03 | 1.05 |  | 0.687 |  | 0.431 |  | 0.979
18 | PC-14 | 1.14 | 1.12 | 1.06 | 0.388 | 0.301 | 0.321 | 0.16 |  | 0.232 |  | 0.165 | 1.15 | 1.13 | 0.926 | 0.988 | 0.96 | 0.24 | 0.317 |  | 0.854
